Earlier results, collected in patent EP0801943A2, “Cosmetic and dermatological photoprotective compositions containing a triazine derivative and alkyl and/or dialkylesters of alpha, omega-alkanedicarboxylic acid” (Beiersdorf Aktiengesellschaft, priority 1996, dated 1997).

Settings: maximum amount of the filter that known solvents (Bekannte Lösungsmittel) can dissolve; prior-art statement, no test described

**Q.** Which “Löslichkeit in Lipiden” value does the source give for `CCCCC(CC)COC(=O)c1ccc(Nc2nc(Nc3ccc(C(=O)OCC(CC)CCCC)cc3)nc(Nc3ccc(C(=O)OCC(CC)CCCC)cc3)n2)cc1` (stereo not shown) [UVINUL® T 150, 4,4',4''-(1,3,5-Triazin-2,4,6-triyltriimino)-tris-benzoesäure-tris(2-ethylhexylester)] here?
**A.** ≤ 15 Gew.-%
